Consider four compounds from patent publication US20250263669A1, “INDUCED TOTIPOTENT STEM CELLS AND PREPARATION METHOD THEREFOR” (TSINGHUA UNIVERSITY, priority 2021, published 2025).

Experiment [1] deals with totipotent stem cells (ciTotiSCs). The experiment can be described thus: Cell cycle G2 phase of totipotent stem cells (ciTotiSCs). The settings on record: 1-Azakenpaullone withdrawn from ciTotiSC culture conditions. Type of experiment: cell-based, mouse. From the text:
(§1) Meanwhile, the inventors also observed a prolongation of the G2 phase of the cell cycle after induction of totipotent stem cells (ciTotiSCs), which was consistent with the difference between early 2C embryos and blastocysts (FIG. 10i).

In experiment [2] the test system is Wnt signaling. The settings on record: studies have shown; cited from earlier work.
The subject of experiment [3] is Wnt signaling. The experiment in a line: GO analysis of Wnt signaling-targeted genes in ciTotiSC culture conditions. The settings on record: 1-AKP withdrawn in ciTotiSC culture conditions. Type of experiment: cell-based, mouse.
Source text: as §1

In experiment [4] the test system is totipotency genes, maternal genes and ZGA genes. The experiment can be described thus: RNA-seq analysis of specific gene sets in totipotent cell induction. Type of experiment: cell-based, mouse. The settings on record: for role in induction of totipotent stem cells (upregulation of totipotency genes, maternal genes and ZGA genes): RNA-seq, specific gene sets.
For experiment [5], the system named is NF-κB signaling. The experiment can be described thus: GO analysis and gene expression after WS6 withdrawal in ciTotiSC culture conditions. Type of experiment: cell-based, mouse. The source says:
WS6 is an IKK—NF-κB inhibitor that was previously shown to promote post-mitotic cell proliferation. […] Furthermore, it has been reported that downregulation of NF-κB during zygote development is critical for its totipotent state, and activation of NF-κB triggers subsequent development after ZGA (Akihiko Nishikimi, 1999; Paciolla et al. 2011). Therefore, WS6 may play a role in promoting and stabilizing induction of totipotent stem cells (ciTotiSCs), in part by inhibiting the NF-κB mediated immune response triggered by ERV activation (FIGS. 10k, j).

In the case of `O=C1Cc2c([nH]c3ccc(Br)cc23)-c2ncccc2N1` [1-Azakenpaullone], the “G2 phase prolongation of ciTotiSCs after withdrawal” value in experiment [1] is on record as “reduced”. Also, the “Wnt signaling downstream gene expression and cell cycle arrest” value in experiment [2] is “induces specific Wnt signaling downstream gene expression and G2/M arrest simultaneously”. Besides, in experiment [3], the “specific Wnt signaling-targeted genes after withdrawal” value is given as “not up-regulated”. For the same compound, the “role in induction of totipotent stem cells (upregulation of totipotency genes, maternal genes and ZGA genes)” value (“role in induction” below) in experiment [4] is on record as “important for the induction of totipotent stem cells”.
Consider `Cc1ccc(C2=CCC(C)(C)c3ccc(C#Cc4ccc(C(=O)O)cc4)cc32)cc1` [AGN193109], for which, in experiment [4] (in the presence of AGN193109), the “gene induction in the presence of the RA antagonist” value was “could not be induced”.
Turning to `C/C(=C\c1ccc(C(=O)O)cc1)c1ccc2c(c1)C(C)(C)CCC2(C)C` [TTNPB], in experiment [4], the “activation of totipotency, maternal and ZGA genes rich in RAR-binding motifs” value is listed as “could directly activate”; the “role in induction” value is “important for the induction of totipotent stem cells”.
Regarding `CN1CCN(Cc2ccc(NC(=O)Cc3ccc(Oc4cc(NC(=O)C5CC5)ncn4)cc3)cc2C(F)(F)F)CC1` [WS6], the “expression of genes downstream of NF-κB signaling” value in experiment [5] (WS6 withdrawn) is on record as “up-regulated”. Moreover, in experiment [5] (ciTotiSC culture conditions), the “GO analysis of differential genes after WS6 ablation” value was “enriched multiple innate immunity-related pathways, especially NF-κB signaling”. Moreover, in experiment [4], the “role in induction” value was “important for the induction of totipotent stem cells”.
